Results from patent publication US20160102066A1, “BENZOTHIAZOLE DERIVATIVE AND ANTI-TUMOR USE THEREOF” (YANTAI UNIVERSITY, priority 2014, published 2016).

Tested on: prostate cancer RM-1 transplanted tumor
Assay: mice prostate cancer RM-1 transplanted tumor, in vivo
Conditions: male C57/BL6 mice, i.p., Docetaxel 10 mg/kg × 3, 1-1 100 mg/kg × 4
Description: The experiment procedures are summarized as follows: mice who had prostate cancer RM-1 and grown well were sacrificed by cervical dislocation. Under sterile conditions, tumor mass growing well was stripped off, homogenized, diluted with physiological saline in 1:4. Each mouse was inoculated 0.2 mL of the tumor solution in the armpit and back (approximately 2*10^6 cells). On the next day; the animals were randomized into groups and the administration began. […] The dosing volume was 0.1 mL/10 g. At the same time, docetaxel control group and solvent control group were set. As for the docetaxel group, the animals were administered by intraperitoneal injection at 10 mg/kg dose, the dosing volume was 0.1 mL/10 g. After continuous administration for 10 days, the animals were sacrificed by cervical dislocation, weighed the body and the tumor, respectively. Inhibition rate of tumor growth (%) was calculated, and the results were statistically processed.

CC(=O)O[C@@]12CO[C@@H]1C[C@H](O)[C@@]1(C)C(=O)[C@H](O)C3=C(C)[C@@H](OC(=O)[C@H](O)[C@@H](NC(=O)OC(C)(C)C)c4ccccc4)C[C@@](O)([C@@H](OC(=O)c4ccccc4)[C@H]21)C3(C)C [Docetaxel, docetaxel]
Tumor weight: 1.77 ± 0.61 g | body weight of Animals, Final (at sacrifice): 18.43 ± 2.17 g | body weight of Animals, Initial (baseline): 20.00 ± 1.07 g | Inhibition rate of tumor growth (versus solvent control): 32%
